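These data come from cells grown in 96-well plates and exposed to compound for 48 hours at five concentrations. TGI marks complete inhibition of growth.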
Columns and labels:
Experiment in all cases: NCI tumour cell line growth inhibition, 48 h
HT29 colon = test system: HT29 colon
SK-MEL-2 melanoma = test system: SK-MEL-2 melanoma
MALME-3M melanoma = test system: MALME-3M melanoma
IGROV1 ovarian = test system: IGROV1 ovarian
LXFL 529 NSCLC = test system: LXFL 529 NSCLC
COLO 205 colon = test system: COLO 205 colon
SNB-75 CNS = test system: SNB-75 CNS
OVCAR-8 ovarian = test system: OVCAR-8 ovarian
EKVX NSCLC = test system: EKVX NSCLC
UO-31 renal = test system: UO-31 renal
A498 renal = test system: A498 renal
SK-OV-3 ovarian = test system: SK-OV-3 ovarian
HL-60(TB) leukemia = test system: HL-60(TB) leukemia
A549 NSCLC = test system: A549 NSCLC
OVCAR-4 ovarian = test system: OVCAR-4 ovarian
NCI-H460 lung = test system: NCI-H460 lung
TK-10 renal = test system: TK-10 renal
RPMI-8226 leukemia = test system: RPMI-8226 leukemia
HOP-18 NSCLC = test system: HOP-18 NSCLC
MOLT-4 leukemia = test system: MOLT-4 leukemia
HCC-2998 colon = test system: HCC-2998 colon
DLD-1 colon = test system: DLD-1 colon
SF-268 CNS = test system: SF-268 CNS
UACC-257 melanoma = test system: UACC-257 melanoma
CCRF-CEM leukemia = test system: CCRF-CEM leukemia
OVCAR-5 ovarian = test system: OVCAR-5 ovarian
SN12C renal = test system: SN12C renal
M14 melanoma = test system: M14 melanoma
ACHN renal = test system: ACHN renal
KM20L2 colon = test system: KM20L2 colon
786-0 renal = test system: 786-0 renal
DMS 114 small cell lung = test system: DMS 114 small cell lung
OVCAR-3 ovarian = test system: OVCAR-3 ovarian
SF-539 CNS = test system: SF-539 CNS
XF 498 CNS = test system: XF 498 CNS
U251 CNS = test system: U251 CNS
RXF 393 renal = test system: RXF 393 renal
M19-MEL melanoma = test system: M19-MEL melanoma
SF-295 CNS = test system: SF-295 CNS
HCT-15 colon = test system: HCT-15 colon
UACC-62 melanoma = test system: UACC-62 melanoma
HCT-116 colon = test system: HCT-116 colon
KM12 colon = test system: KM12 colon
NCI-H23 lung = test system: NCI-H23 lung
NCI-H522 lung = test system: NCI-H522 lung
HOP-92 NSCLC = test system: HOP-92 NSCLC
LOX IMVI melanoma = test system: LOX IMVI melanoma
SK-MEL-28 melanoma = test system: SK-MEL-28 melanoma
NCI-H226 lung = test system: NCI-H226 lung
HOP-62 NSCLC = test system: HOP-62 NSCLC
SK-MEL-5 melanoma = test system: SK-MEL-5 melanoma
RXF-631 renal = test system: RXF-631 renal
K-562 leukemia = test system: K-562 leukemia
SR leukemia = test system: SR leukemia
SNB-78 CNS = test system: SNB-78 CNS
DMS 273 small cell lung = test system: DMS 273 small cell lung
SNB-19 CNS = test system: SNB-19 CNS
CAKI-1 renal = test system: CAKI-1 renal
SW-620 colon = test system: SW-620 colon

CC(=N)N(C)O
TGI (HT29 colon): > 100 µM
TGI (SK-MEL-2 melanoma): > 100 µM
TGI (MALME-3M melanoma): > 100 µM
TGI (IGROV1 ovarian): > 100 µM
TGI (LXFL 529 NSCLC): > 100 µM
TGI (COLO 205 colon): 33.2 µM
TGI (SNB-75 CNS): > 100 µM
TGI (OVCAR-8 ovarian): > 100 µM
TGI (EKVX NSCLC): > 100 µM
TGI (UO-31 renal): > 100 µM
TGI (A498 renal): > 100 µM
TGI (SK-OV-3 ovarian): > 100 µM
TGI (HL-60(TB) leukemia): > 100 µM
TGI (A549 NSCLC): > 100 µM
TGI (OVCAR-4 ovarian): > 100 µM
TGI (NCI-H460 lung): > 100 µM
TGI (TK-10 renal): > 100 µM
TGI (RPMI-8226 leukemia): > 100 µM
TGI (HOP-18 NSCLC): > 100 µM
TGI (MOLT-4 leukemia): > 100 µM
TGI (HCC-2998 colon): > 100 µM
TGI (DLD-1 colon): > 100 µM
TGI (SF-268 CNS): > 100 µM
TGI (UACC-257 melanoma): > 100 µM
TGI (CCRF-CEM leukemia): 53.1 µM
TGI (OVCAR-5 ovarian): > 100 µM
TGI (SN12C renal): > 100 µM
TGI (M14 melanoma): > 100 µM
TGI (ACHN renal): > 100 µM
TGI (KM20L2 colon): > 100 µM
TGI (786-0 renal): > 100 µM
TGI (DMS 114 small cell lung): 33.2 µM
TGI (OVCAR-3 ovarian): > 100 µM
TGI (SF-539 CNS): > 100 µM
TGI (XF 498 CNS): > 100 µM
TGI (U251 CNS): > 100 µM
TGI (RXF 393 renal): > 100 µM
TGI (M19-MEL melanoma): > 100 µM
TGI (SF-295 CNS): > 100 µM
TGI (HCT-15 colon): 42.9 µM
TGI (UACC-62 melanoma): > 100 µM
TGI (HCT-116 colon): > 100 µM
TGI (KM12 colon): > 100 µM
TGI (NCI-H23 lung): > 100 µM
TGI (NCI-H522 lung): > 100 µM
TGI (HOP-92 NSCLC): > 100 µM
TGI (LOX IMVI melanoma): 31.3 µM
TGI (SK-MEL-28 melanoma): > 100 µM
TGI (NCI-H226 lung): > 100 µM
TGI (HOP-62 NSCLC): > 100 µM
TGI (SK-MEL-5 melanoma): > 100 µM
TGI (RXF-631 renal): > 100 µM
TGI (K-562 leukemia): > 100 µM
TGI (SR leukemia): 68.4 µM
TGI (SNB-78 CNS): > 100 µM

O=C(O)c1nccnc1C(=O)O
TGI (HT29 colon): > 100 µM
TGI (SK-MEL-2 melanoma): > 100 µM
TGI (MALME-3M melanoma): > 100 µM
TGI (IGROV1 ovarian): > 100 µM
TGI (LXFL 529 NSCLC): > 100 µM
TGI (COLO 205 colon): > 100 µM
TGI (SNB-75 CNS): > 100 µM
TGI (EKVX NSCLC): > 100 µM
TGI (UO-31 renal): > 100 µM
TGI (DMS 273 small cell lung): > 100 µM
TGI (SK-OV-3 ovarian): > 100 µM
TGI (HL-60(TB) leukemia): > 100 µM
TGI (A549 NSCLC): > 100 µM
TGI (OVCAR-4 ovarian): > 100 µM
TGI (NCI-H460 lung): > 100 µM
TGI (TK-10 renal): > 100 µM
TGI (RPMI-8226 leukemia): > 100 µM
TGI (MOLT-4 leukemia): > 100 µM
TGI (HCC-2998 colon): > 100 µM
TGI (DLD-1 colon): > 100 µM
TGI (SF-268 CNS): > 100 µM
TGI (UACC-257 melanoma): > 100 µM
TGI (CCRF-CEM leukemia): > 100 µM
TGI (OVCAR-5 ovarian): > 100 µM
TGI (SN12C renal): > 100 µM
TGI (KM20L2 colon): > 100 µM
TGI (786-0 renal): > 100 µM
TGI (SNB-19 CNS): > 100 µM
TGI (DMS 114 small cell lung): > 100 µM
TGI (CAKI-1 renal): > 100 µM
TGI (SF-539 CNS): > 100 µM
TGI (XF 498 CNS): > 100 µM
TGI (U251 CNS): > 100 µM
TGI (RXF 393 renal): > 100 µM
TGI (M19-MEL melanoma): > 100 µM
TGI (SF-295 CNS): > 100 µM
TGI (SW-620 colon): > 100 µM
TGI (HCT-15 colon): > 100 µM
TGI (UACC-62 melanoma): > 100 µM
TGI (HCT-116 colon): > 100 µM
TGI (KM12 colon): > 100 µM
TGI (NCI-H23 lung): > 100 µM
TGI (NCI-H522 lung): > 100 µM
TGI (HOP-92 NSCLC): > 100 µM
TGI (LOX IMVI melanoma): > 100 µM
TGI (SK-MEL-28 melanoma): > 100 µM
TGI (NCI-H226 lung): > 100 µM
TGI (SK-MEL-5 melanoma): > 100 µM
TGI (RXF-631 renal): > 100 µM
TGI (K-562 leukemia): > 100 µM
TGI (SR leukemia): > 100 µM

[O-][n+]1c(-c2ccccc2)c2nc3ccccc3nc2c2ccccc21
TGI (HT29 colon): > 100 µM
TGI (SK-MEL-2 melanoma): > 100 µM
TGI (MALME-3M melanoma): > 100 µM
TGI (IGROV1 ovarian): > 100 µM
TGI (LXFL 529 NSCLC): 93.9 µM
TGI (COLO 205 colon): > 100 µM
TGI (SNB-75 CNS): 99 µM
TGI (OVCAR-8 ovarian): > 100 µM
TGI (EKVX NSCLC): > 100 µM
TGI (UO-31 renal): > 100 µM
TGI (DMS 273 small cell lung): > 100 µM
TGI (A498 renal): > 100 µM
TGI (SK-OV-3 ovarian): > 100 µM
TGI (A549 NSCLC): > 100 µM
TGI (OVCAR-4 ovarian): > 100 µM
TGI (NCI-H460 lung): > 100 µM
TGI (TK-10 renal): > 100 µM
TGI (RPMI-8226 leukemia): > 100 µM
TGI (MOLT-4 leukemia): > 100 µM
TGI (HCC-2998 colon): > 100 µM
TGI (DLD-1 colon): > 100 µM
TGI (SF-268 CNS): > 100 µM
TGI (UACC-257 melanoma): > 100 µM
TGI (CCRF-CEM leukemia): > 100 µM
TGI (OVCAR-5 ovarian): > 100 µM
TGI (SN12C renal): > 100 µM
TGI (M14 melanoma): > 100 µM
TGI (ACHN renal): > 100 µM
TGI (KM20L2 colon): > 100 µM
TGI (786-0 renal): > 100 µM
TGI (SNB-19 CNS): > 100 µM
TGI (DMS 114 small cell lung): > 100 µM
TGI (CAKI-1 renal): > 100 µM
TGI (OVCAR-3 ovarian): > 100 µM
TGI (SF-539 CNS): > 100 µM
TGI (XF 498 CNS): > 100 µM
TGI (U251 CNS): > 100 µM
TGI (RXF 393 renal): > 100 µM
TGI (M19-MEL melanoma): > 100 µM
TGI (SF-295 CNS): > 100 µM
TGI (SW-620 colon): > 100 µM
TGI (HCT-15 colon): > 100 µM
TGI (UACC-62 melanoma): > 100 µM
TGI (HCT-116 colon): > 100 µM
TGI (KM12 colon): > 100 µM
TGI (NCI-H23 lung): > 100 µM
TGI (NCI-H522 lung): > 100 µM
TGI (HOP-92 NSCLC): > 100 µM
TGI (LOX IMVI melanoma): > 100 µM
TGI (SK-MEL-28 melanoma): > 100 µM
TGI (NCI-H226 lung): > 100 µM
TGI (HOP-62 NSCLC): > 100 µM
TGI (SK-MEL-5 melanoma): > 100 µM
TGI (RXF-631 renal): > 100 µM
TGI (K-562 leukemia): > 100 µM
TGI (SNB-78 CNS): 92.4 µM

Source: PubChem BioAssay (NCI)
